Counter-ions that a name gives are not always drawn.
Legend:
[1] = Evaluation of conversion rate to active form in human plasma; assay type: in vitro ADME; conditions: for Measurement value % of test compound (ratio of decrease): 37° C., 10 umol/L
Experimental: (§1) The ratio of decrease of a test compound and the conversion ratio to a corresponding active form (2-acetylthieno[3,2-f][1]benzofuran-4,8-dione) in human plasma and CD1 mouse plasma were measured for Example 1.
(§2) The test compounds were incubated at 37° C. at a concentration of 10 umol/L in human plasma (cat. no. 12250210, Cosmo Bio) and CD1 mouse plasma (cat. no. AP3054, KAC) and retrieved for a given time (0, 5, 10, 30, 60, and 120 minutes) and deproteinized, then analyzed by LC-MS. Acetonitrile comprising each of 10% quantity of 1 mol/L hydrochloric acid, 1% quantity of 46% citric acid, and phenytoin as an internal standard was used for deproteinization.
(§3) LC-MS measurement conditions were the following.
(§4) The yield of the Examples compounds and active form 2-acetylthieno[3,2-f][1]benzofuran-4,8-dione is calculated with each of the peak area of the Example compounds at 0 minutes and the peak area upon dissolution of 2-acetylthieno[3,2-f][1]benzofuran-4,8-dione at 100 umol/L as 100%. The yield is denoted in terms of %.
(§5) In the same manner as Example 1, the conversion ratio to an active form was measured for each of the various test compounds in human plasma and CD1 mouse plasma, with incubation time as 120 minutes. It was confirmed that the series of compounds of the invention was converted to an active form with a small interspecies difference in human plasma and CD1 mouse plasma.
(§6) The yield of the active forms is calculated with the each peak area upon dissolution of the generated active form at 100 umol/L as 100%. The yield is denoted in terms of %.

[2] = Pharmacokinetics test, plasma concentration after intravenous administration; assay type: in vivo, CD1 (ICR) mice; conditions: mice
Experimental: The concentration of the active form (2-acetylthieno[3,2-f][1]benzofuran-4,8-dione) in plasma was measured for the water-soluble prodrug described in Example 1. The animal species, dosing method, preparation method of a standard solution, and the plasma concentration measurement method are the following.
Animals: 7-week old male CD1 (ICR) mice were used as the experimental animals.
Dosing method: the test sample was weighed and then dissolved in a 50 mmol/L glycine buffered saline (pH 2.0) as the administered solution. The body weight of mice was measured, and the prepared solution was intravenously administered.
Blood collection method: heparin was added to a blood collection tube, and blood was collected from mice. 1% quantity of 46% citric acid was added to the obtained blood, which was centrifuged to give the plasma. 10% quantity of 1 mol/L HCl was added to the collected plasma as the plasma sample. 10% quantity of 1 mol/L HCl added to blank plasma was used as the blank sample. […]
Plasma concentration measurement: 100 ug/mL of standard solution was diluted with an acetonitrile solution to prepare a calibration curve sample with a concentration of interest. […] 180 uL of internal standard containing acetonitrile (containing 1% quantity of 10 mol/L HCl) was added to each of the plasma calibration curve sample and sample for plasma analysis. […]

[3] = Evaluation of conversion rate to active form in CD1 mouse plasma; assay type: in vitro ADME; conditions: CD1 mouse plasma; for Test compound remaining (% of 0 min peak area): 37° C., 10 umol/L
Experimental: as §1, §2, §3, §4, §5, §6

[4] = Solution stability test (residual ratio and generation of active form in buffers of pH 2.0 to 9.0); assay type: physicochemical; design: Rate of generation of active form after 24 hours in buffer with pH of 7.4: tested at 25 µM; conditions: for Residual ratio: 25 umol/L
Experimental: The test compounds were incubated at 25° C. at a concentration of 25 umol/L in a buffer prepared to have a pH of 2.0, 3.0, 5.0, 7.4, and 9.0. The compounds were measured by HPLC after 0, 3, 6, 9, 12, and 24 hours.
The buffers used at each pH are the following. • pH 2.0: 50 mmol/L glycine buffer • pH 3.0: 50 mmol/L citrate buffer • pH 5.0: 50 mmol/L citrate buffer • pH 7.4: 50 mmol/L phosphate buffer • pH 9.0: 50 mmol/L glycine buffer
The measurement conditions for HPLC are the following.
The yield of the Example and Reference Example compounds and active forms is calculated with each of the peak area of the Example and Reference Example compounds at 0 minutes and the peak area upon dissolution of the corresponding active form at 100 umol/L as 100%. The yield is denoted in terms of %

[5] = physchem; conditions: pH 2, aqueous buffer, thermodynamic from solid
Experimental: The solubility of the water-soluble prodrugs described in the Examples and the Reference Examples was measured. […] The filtrate was measured by HPLC.

CC(=O)c1cc2c(OC(=O)NCCNCC(=O)O)c3ccsc3c(OC(=O)NCCNCC(=O)O)c2o1 [Example 1, 2,2′-[(2-Acetylthieno[3,2-f][1]benzofuran-4,8-diyl)bis(oxycarbonyliminoethane-2,1-diylimino)]diacetic acid dihydrochloride]
Degradation in plasma (in words) ([1]; human plasma): quickly progressed
Interspecies difference of conversion to active form (in words) ([1]; human plasma versus CD1 mouse plasma): interspecies difference was small
Measurement value % of test compound (ratio of decrease) ([1]; human plasma, 0 minutes): 100%
Measurement value % of test compound (ratio of decrease) ([1]; human plasma, 5 minutes): 0.0%
Measurement value % of test compound (ratio of decrease) ([1]; human plasma, 10 minutes): 0.0%
Measurement value % of test compound (ratio of decrease) ([1]; human plasma, 30 minutes): 0.0%
Measurement value % of test compound (ratio of decrease) ([1]; human plasma, 60 minutes): 0.0%
Measurement value % of test compound (ratio of decrease) ([1]; human plasma, 120 minutes): 0.0%
Generation of active form after intravenous administration (in words) [2]: quickly generated
Degradation in plasma (in words) [3]: quickly progressed
Test compound remaining (% of 0 min peak area) ([3]; 0 minutes): 100%
Test compound remaining (% of 0 min peak area) ([3]; 5 minutes): 0.11%
Test compound remaining (% of 0 min peak area) ([3]; 10 minutes): 0.01%
Test compound remaining (% of 0 min peak area) ([3]; 30 minutes): 0.01%
Test compound remaining (% of 0 min peak area) ([3]; 60 minutes): 0.01%
Test compound remaining (% of 0 min peak area) ([3]; 120 minutes): 0.08%
Residual ratio ([4]; pH2.0 buffer, 25° C., 0 hr): 100%
Residual ratio ([4]; pH2.0 buffer, 25° C., 3 hr): 100%
Residual ratio ([4]; pH2.0 buffer, 25° C., 6 hr): 103%
Residual ratio ([4]; pH2.0 buffer, 25° C., 9 hr): 102%
Residual ratio ([4]; pH2.0 buffer, 25° C., 12 hr): 102%
Residual ratio ([4]; pH2.0 buffer, 25° C., 24 hr): 98.6%
Degradation behaviour in buffers (in words) ([4]; pH 2.0 to 9.0): pH dependent and chemical degradation progressed
Residual ratio ([4]; pH3.0 buffer, 25° C., 0 hr): 99.9%
Residual ratio ([4]; pH3.0 buffer, 25° C., 3 hr): 97.6%
Residual ratio ([4]; pH3.0 buffer, 25° C., 6 hr): 95.3%
Residual ratio ([4]; pH3.0 buffer, 25° C., 9 hr): 95.6%
Residual ratio ([4]; pH3.0 buffer, 25° C., 12 hr): 90.9%
Residual ratio ([4]; pH3.0 buffer, 25° C., 24 hr): 86.9%
Residual ratio ([4]; pH5.0 buffer, 25° C., 0 hr): 85.1%
Residual ratio ([4]; pH5.0 buffer, 25° C., 3 hr): 6.6%
Residual ratio ([4]; pH5.0 buffer, 25° C., 6 hr): 3.9%
Residual ratio ([4]; pH5.0 buffer, 25° C., 9 hr, dihydrochloride): 0%
Residual ratio ([4]; pH5.0 buffer, 25° C., 12 hr): 0.0%
Residual ratio ([4]; pH5.0 buffer, 25° C., 24 hr): 0.0%
Residual ratio ([4]; pH7.4 buffer, 25° C., 0 hr, dihydrochloride): 0%
Residual ratio ([4]; pH7.4 buffer, 25° C., 3 hr): 0.0%
Residual ratio ([4]; pH7.4 buffer, 25° C., 6 hr): 0.0%
Residual ratio ([4]; pH7.4 buffer, 25° C., 9 hr): 0.0%
Residual ratio ([4]; pH7.4 buffer, 25° C., 12 hr): 0.0%
Residual ratio ([4]; pH7.4 buffer, 25° C., 24 hr): 0.0%
Rate of generation of active form after 24 hours in buffer with pH of 7.4 ([4]; pH 7.4 buffer, 24 hours, 25° C.): 92%
Residual ratio ([4]; pH9.0 buffer, 25° C., 0 hr, dihydrochloride): 0%
Residual ratio ([4]; pH9.0 buffer, 25° C., 3 hr): 0.0%
Residual ratio ([4]; pH9.0 buffer, 25° C., 6 hr): 0.0%
Residual ratio ([4]; pH9.0 buffer, 25° C., 9 hr): 0.0%
Residual ratio ([4]; pH9.0 buffer, 25° C., 12 hr): 0.0%
Residual ratio ([4]; pH9.0 buffer, 25° C., 24 hr): 0.0%
Stability in solution (in words) ([4]; pH of 2.0, 25° C.): very stable
Stability in solution (in words) ([4]; pH of 3.0, 25° C.): sufficiently stable
solubility at 24 h [5]: > 10000 µg/mL
